# Key:
# [1] = log P by HPLC on reversed-phase columns (C 18), EEC Directive 79/831 Annex V.A8; type: physicochemical; details: reversed-phase C18 HPLC column, pH 2.3, [a] HPLC, acid region pH 2.3, 0.1% aqueous phosphoric acid and acetonitrile; read-out: log p
# Alternaria solani = test: Alternaria test (tomato)/protective; type: in vivo; details: 72 h, 100 ppm active substance, protective, evaluation 3 days after inoculation, read-out: degree of effectiveness
# Procedure: (§1) • Solvents: 24.5 parts by weight of acetone • 24.5 parts by weight of dimethylacetamide • Emulsifier: 1 part by weight of alkylaryl polyglycol ether (polyoxyethylene (16) tristearylphenyl ether)
# (§2) To prepare a suitable active substance composition, 1 part by weight of active substance is mixed with the given amounts of solvents and emulsifier and the concentrate is diluted to the desired concentration using water.
# For the testing of protective effectiveness, young plants are sprayed with the active substance composition in the application rate given. After the spray coating has been dried on, the plants are inoculated with an aqueous suspension of spores of Alternaria solani. The plants are then placed in an incubation chamber at approximately 20° C. and 100% relative humidity.
# Evaluation is carried out 3 days after the inoculation. In this connection, 0% means a degree of effectiveness corresponding to that of the control, while a degree of effectiveness of 100% means that no infestation is observed.
# Uromyces appendiculatus = test: Uromyces test (beans)/protective; type: in vivo; details: 240 h, 100 ppm active substance, protective, evaluation 10 days after inoculation, read-out: degree of effectiveness
# Procedure: as §1, §2
# For the testing of protective effectiveness, young plants are sprayed with the active substance composition in the application rate given. After the spray coating has been dried on, the plants are inoculated with an aqueous suspension of the spores of the bean rust pathogen Uromyces appendiculatus and then remain in an incubation chamber at approximately 20° C. and 100% relative humidity for 1 day.
# The plants are then placed in a greenhouse at approximately 21° C. and a relative humidity of approximately 90%.
# Evaluation is carried out 10 days after the inoculation. In this connection, 0% means a degree of effectiveness corresponding to that of the control, while a degree of effectiveness of 100% means that no infestation is observed.
# Sphaerotheca fuliginea = test: Sphaerotheca test (cucumber)/protective; type: in vivo; details: Podosphaera fuliginea, 168 h, 500 ppm active substance, protective, evaluation 7 days after inoculation, read-out: degree of effectiveness
# Outline: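 Young cucumber plants sprayed at the stated rate with active substance in DMF/alkylaryl polyglycol ether emulsifier diluted in water, then inoculated with Sphaerotheca fuliginea spores one day later. Kept in greenhouse at 70% relative humidity, 23° C.; scored 7 days post-inoculation as % efficacy (0% = untreated control, 100% = no infestation).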
# Puccinia triticina = Puccinia triticina test (wheat)/protective; type: in vivo; details: 192 h, 500 ppm active substance, protective, evaluation 8 days after inoculation, read-out: degree of effectiveness
# Outline: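 Protective test: young wheat plants sprayed with compound (in N,N-dimethylacetamide/emulsifier, diluted in water) at the stated rate, dried, then inoculated with Puccinia triticina spores; 48 h at 20 °C, 100% RH, then greenhouse ~20 °C, ~80% RH. Efficacy scored 8 days post-inoculation, 0% = untreated control, 100% = no infestation.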
# Septoria tritici = Septoria tritici test (wheat)/protective; type: in vivo; details: Zymoseptoria tritici, 504 h, 500 ppm active substance, protective, evaluation 21 days after inoculation, read-out: degree of effectiveness
# Outline: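 Young wheat plants sprayed with compound in dimethylacetamide/emulsifier-water, then inoculated with S. tritici spores once dry. Kept 48 h at 20 °C/100% RH, 60 h at 15 °C/100% RH, then greenhouse ~15 °C/80% RH. Scored 21 days post-inoculation as % efficacy versus untreated control.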
chromatographic logP [1],SMILES,pest or weed control at 100 ppm (Alternaria solani) [%],pest or weed control at 100 ppm (Uromyces appendiculatus) [%],pest or weed control at 500 ppm (Sphaerotheca fuliginea) [%],pest or weed control at 500 ppm (Puccinia triticina) [%],pest or weed control at 500 ppm (Septoria tritici) [%]
2.46,"Cc1cc(Oc2nc(C(C)c3ccc(Cl)cc3)ns2)c(C)cc1N=CN(C)C(C)C (stereo not drawn) [Example 19, N′-[4-({3-[1-(4-chlorophenyl)ethyl]-1,2,4-thiadiazol-5-yl}oxy)-2,5-dimethylphenyl]-N-methyl-N-(propan-2-yl)imidoformamide]",≥ 70,≥ 70,≥ 70,≥ 70,≥ 70
1.71,"CCN(C)C=Nc1cc(C)c(Oc2nc(Cc3ccccc3)ns2)cc1C [Example 23, N′-{4-[(3-benzyl-1,2,4-thiadiazol-5-yl)oxy]-2,5-dimethylphenyl}-N-ethyl-N-methylimidoformamide]",≥ 70,≥ 70,≥ 70,≥ 70,≥ 70
2.76,"Cc1cc(Oc2nc(C(C)(C)c3ccc(Cl)cc3)ns2)c(C)cc1N=CN1CCCCC1 [Example 26, 4-({3-[2-(4-chlorophenyl)propan-2-yl]-1,2,4-thiadiazol-5-yl}oxy)-2,5-dimethyl-N-(piperidin-1-ylmethylidene)aniline]",≥ 70,≥ 70,≥ 70,≥ 70,≥ 70
2.73,"CCN(C)C=Nc1cc(Cl)c(Oc2nc(C(C)(C)c3ccc(Cl)cc3)ns2)cc1C [Example 28, N′-[5-chloro-4-({3-[2-(4-chlorophenyl)propan-2-yl]-1,2,4-thiadiazol-5-yl}oxy)-2-methylphenyl]-N-ethyl-N-methylimidoformamide]",≥ 70,≥ 70,≥ 70,≥ 70,≥ 70
1.91,"Cc1cc(Oc2nc(Cc3ccccc3)ns2)c(C)cc1N=CN1CCCCC1 [Example 36, 4-[(3-benzyl-1,2,4-thiadiazol-5-yl)oxy]-2,5-dimethyl-N-(piperidin-1-ylmethylidene)aniline]",≥ 70,≥ 70,≥ 70,≥ 70,≥ 70
2.1,"CCN(C)C=Nc1cc(C)c(Oc2nc(Cc3ccccc3C(F)(F)F)ns2)cc1C [Example 42, N′-[2,5-dimethyl-4-({3-[2-(trifluoromethyl)benzyl]-1,2,4-thiadiazol-5-yl}oxy)phenyl]-N-ethyl-N-methylimidoformamide]",≥ 70,≥ 70,≥ 70,≥ 70,≥ 70
2.35,"Cc1cc(Oc2nc(Cc3ccc(Cl)c(Cl)c3)ns2)c(C)cc1N=CN(C)C(C)C [Example 47, N′-(4-{[3-(3,4-dichlorobenzyl)-1,2,4-thiadiazol-5-yl]oxy}-2,5-dimethylphenyl)-N-methyl-N-(propan-2-yl)imidoformamide]",≥ 70,≥ 70,≥ 70,≥ 70,≥ 70
2.3,"CCN(C)C=Nc1cc(C)c(Oc2nc(Cc3ccc(Cl)c(Cl)c3)ns2)cc1C [Example 51, N′-(4-{[3-(3,4-dichlorobenzyl)-1,2,4-thiadiazol-5-yl]oxy}-2,5-dimethylphenyl)-N-ethyl-N-methylimidoformamide]",≥ 70,≥ 70,≥ 70,≥ 70,≥ 70
